Data published in patent US10328051B2, “Proline or proline derivatives for the treatment of dementia” (priority 2014, dated 2019).

Tests used:
Type in all cases: in vivo, human
[1] = Pre-dose endogenous plasma concentrations of CHP and THP in healthy volunteers (Study 0202-71), HPLC; details: healthy subjects
Method: Example 8—Study Title: Determination of Pre-Dose Endogenous Concentrations of CHP in Healthy Volunteers (Study 0202 71) (FIG. 11)
According to the examples in this invention, the following ICH-GCP Clinical Phase I study has been performed in healthy subjects for the assessment of the pharmacokinetic profiles of CHP and THP and the determination of the pre-dose endogenous CHP blood plasma concentrations, which were measured for all healthy volunteers directly before CHP administration using a validated, sensitive and selective HPLC bioanalytical method.
Example 9—Study Title: Determination of Pre-Dose Endogenous Concentrations of THP in Healthy Volunteers (Study 0202 71)—(FIG. 11)
According to the examples in this invention, the following ICH-GCP Clinical Phase I study has been performed in healthy volunteers for the assessment of the pharmacokinetic profiles of THP and to determine the pre-dose endogenous THP plasma concentrations, which were measured for all healthy volunteers directly before CHP administration using a validated, sensitive and selective HPLC bioanalytical method. This was performed before both CHP administrations (i.e. for 2.0 g and 3.0 g). • The mean endogenous THP concentration in healthy subjects, calculated across all dose groups, was 0.97±1.15 μg CHP/ml of plasma.

[2] = tested on: patients with mild or moderate Alzheimer's disease and Dementia; test: Physical and cognitive conditions and Quality of Life questionnaire in patients with mild and moderate Alzheimer's disease (Example 13)
From the text: Example 13—Physical, and Cognitive Conditions—Alzheimer—Dementia Measure and Quality of Life (QoL) (FIGS. 13.1, 13.2, 13.3)
According to the ICH-GCP requirements for assessment of the Quality of Life (QoL) the validated questionnaire related to the disease e.g. cancer have been administered in the Phase II clinical studies: IPSS-A04, according to the example 12.1 in this invention.
Additional developed modules to these questionnaire provided greater details on the particular aspects of quality of life for those patients who participated in these clinical studies and diagnosed with mild and moderate Alzheimer's disease based on the presence of neuropsychiatric symptoms.
Diagnosis begun with a thorough physical exam and complete medical history including cerebrovascular disease and supplemental information from family members. Simple tests of mental function, including word recall, object naming, and number symbol marching, were used to track changes in the patient's cognitive ability. Ruling out depression was part of the diagnosis. Eight (8) patients over the age of 65 years met these criteria and have been selected for the assessment of CHP effects on the quality of life according to the items mentioned below including the cognitive status.
The administration of intravenous (iv) and oral CHP as monotherapy has been scheduled according to examples 12.1 in this invention in the patient's group G2—in study IPSS-A04.
The assessment of the QoL, physical, and cognitive conditions—Alzheimer-Dementia has been completed by the patients/care providers in the following intervals (FIGS. 13.1-13.3):
Pre-dose: Prior to the start of treatment with CHP as monotherapy
Start and completion of treatment with CHP: The questionnaire has been completed every 4 weeks after the start of treatment (Week 4, 8, 12, 16, 20, 24) and 4 weeks upon the completion of the treatment with CHP as monotherapy. A scale value is given for each response that reflects a good quality of life. […] A higher score reflects a higher quality of life. The 5 domains of Quality of Life—Alzheimer's Disease-Dementia included are: 1. Enjoyment of activities, 2. Feelings and mood, 3. Awareness of self, 4. Social Interactions, 5. Illness global QoL.
The following modified QLQ-C30 Version 1.0 has been used for the recording and assessment of the patient's conditions prior to and after the treatment with CHP.

[3] = Single ascending oral doses of CHP (Study 1001-68) and single IV dose (Study 0302-72): pharmacokinetics and safety in healthy volunteers
From the text: study title Safety, tolerability and pharmacokinetic profile of single ascending doses of oral cis-4-hydroxy-L-proline (CHP) in healthy volunteers Galmed study no. 1001-68-. Results FIGS. 3 and 4.
Study title: Single Dose Absolute Bioavailability (intravenous IV solution) and Safety Study of CHP in Healthy Volunteers-GALMED Study No: 0302-72. Results are in (FIGS. 5 and 6)
Six healthy volunteers (male, caucasian—18-45 years old) were recruited from the GCP-Galmed clinical centre. All healthy volunteers provided written informed consent prior to study participation. The study was approved by the independent Ethical Committee.
All volunteers were orally administered 2, 4, 6, 8, 10 and 12 grams of CHP with a wash out period of at least one week between doses of CHP.
The following blood and urine samples were collected for determination of the pharmacokinetics parameters of CHP and THP:
10 hours and immediately prior to administration of CHP (0 Hour), and at 0.25, 0.5, 1, 1.5, 2, 2.5, 3, 4, 5, 6, 12 and 24 hours after administration of CHP.
Urine was collected for the determination of the CHP and THP concentrations and the calculation of the elimination parameters of CHP and THP.
Six healthy volunteers (male, caucasian—18-45 years old) were recruited from the GCP-Galmed clinical centre. All healthy volunteers provided written informed consent prior to study participation. The study was approved by the independent Ethical Committee. Single doses of CHP were intravenously administered: 2.0 g, 4.0 g (2×2.0 g). Each dose level was administered to all healthy volunteers. There was a washout period of at least one week between doses.
The following safety parameters were determined at the pre- and post-study examinations: • 1. Vital signs • 2. Clinical laboratory: Blood chemistry, Haematology, Coagulation, Urinalysis • 3. Adverse events (Signs and Symptoms) have been recorded in each of the two treatment periods.

Collagen IV = test: Measurement of Collagen-IV following multiple dose administration of CHP (Study 0202-71); details: healthy volunteers, multiple oral doses of CHP for 14 days; P-value 0.0016 (t-test), 0.0047 (Wilcoxon-test)
From the text: Example 7—Study Title: Measurement of Collagen-IV Following Multiple Dose Administration of CHP-Study 0202-71—(FIG. 8)
Using a one-sample two-sided t-test, a P-value of 0.0016 was obtained, indicating a 99.8% that the decreased observed was not the result of chance. Using a one-sample two-sided Wilcoxon-test, a P-value of 0.0047 was obtained, indicating a 99.5% that the decreased observed was not the result of chance.

[4] = after completion of treatment, 8 patients, pre dose 0
[5] = after completion of treatment, 8 patients, pre dose 3
[6] = after completion of treatment, 8 patients, pre-dose 0
[7] = healthy subjects, after oral administration of CHP 2 g-12 g

**Q.** What does the source list for O=C(O)[C@@H]1C[C@H](O)CN1 [CHP, cis-4-hydroxy-L-proline]?
**A.** Average Cmax, molar equivalent in blood ([1]; Study 0202-71): 462.2±212.1 μM CHP/ml blood; Average Cmax ([1]; Study 0202-71, after CHP administration): 30.29±13.91 μg CHP/ml plasma; Overall Physical Condition: number of patients rating 5 [2, 4]: 5; Overall Physical Condition: number of patients rating 6 [2, 4]: 1; Overall Physical Condition: number of patients rating 7 [2, 4]: 0; Overall Quality of Life (QoL): number of patients rating 4 [2, 4]: 3; Overall Quality of Life (QoL): number of patients rating 5 [2, 4]: 3; Overall Quality of Life (QoL): number of patients rating 6 [2, 4]: 2; Overall Quality of Life (QoL): number of patients rating 7 [2, 4]: 0; Overall Physical Condition: number of patients rating 3 [2, 5]: 1; Overall Physical Condition: number of patients rating 4 [2, 5]: 1; Overall Quality of Life (QoL): number of patients rating 3 [2, 5]: 0; Overall Cognitive Conditions: number of patients rating 5 [2, 6]: 3; Overall Cognitive Conditions: number of patients rating 6 [2, 6]: 1; Overall Cognitive Conditions: number of patients rating 7 [2, 6]: 0; Overall Cognitive Conditions: number of patients rating 4 ([2]; after completion of treatment, 8 patients, pre-dose 1): 3; Overall Cognitive Conditions: number of patients rating 3 ([2]; after completion of treatment, 8 patients, pre-dose 3): 1; Overall Physical Condition: number of patients rating 2 ([2]; after completion of treatment, scale 1 = Very poor 7 = Excellent, 8 patients, pre dose 2): 0; Overall Quality of Life (QoL): number of patients rating 2 ([2]; after completion of treatment, scale 1 = Very poor 7 = Excellent, 8 patients, pre dose 5): 0; Overall Cognitive Conditions: number of patients rating 2 ([2]; after completion of treatment, scale 1 = Very poor 7 = Excellent, 8 patients, pre-dose 4): 0; Cognitive, physical, emotional conditions and quality of life in comparison to status prior to the start of the treatment ([2]; oral and/or intravenous CHP monotherapy, 90-540 consecutive days, 2-12 gram per day, mild or moderate Alzheimer's disease and dementia): significant improvement; Adverse events ([2]; patients with mild or moderate Alzheimer's disease): Only mild adverse events; Vital parameters, clinical chemistry, haematological and urinalysis findings ([3]; CHP administered orally and intravenously to healthy volunteers (Examples 3 and 4)): all within the normal range; Oral clearance (average) [3, 7]: 199.72 mL/min; Volume of distribution (average) [3, 7]: 63.94 L; Correlation of Cmax and AUC(0-∞) with dose ([3]; healthy subjects, oral CHP doses 2 g-12 g): dose linearity; Metabolism by the liver microsomal enzyme system ([3]; human, in vivo): isomerisation, hydroxylation and demethylation; half-life ([3]; male, human, in vivo, healthy subjects, after oral administration of CHP 2 g-12 g, read-out: Elimination half life (average) (converted)): 3.7 h; MRT ([3]; male, human, in vivo, healthy subjects, after oral administration of CHP 2 g-12 g, read-out: Mean residence time (MRT) (average)): 4.15 h; Tmax ([3]; male, human, healthy subjects, plasma, after oral administration of CHP 2 g-12 g): 1.24 h; Collagen IV levels in blood (Collagen IV): inhibits significantly
